Results reported in US10604535B2, “Compounds, compositions and methods” (Denali Therapeutics Inc., priority 2016, dated 2020).
Where two headings read alike, the source gives them in different places.

What was measured:
[1] = male, Sprague-Dawley Crl:CD(SD), in vivo, iv
[2] = system: human cryopreserved hepatocytes; test: Metabolic stability (hepatocytes); conditions: for clearance as % of liver blood flow: corresponding to human CLhep; for Human hepatocyte CLhep Avg: human cryopreserved hepatocytes
Method: (§1) The metabolic stability of compounds was evaluated in human cryopreserved hepatocytes (BioreclamationlVT, NY, USA) in duplicate. Test articles (or controls) were added to a 24-well incubation plate (Becton Dickinson Labware, USA) containing 0.5×10^6 hepatocytes/mL in suspension. The plate was held at 37° C. and agitated with constant orbital shaking (orbital speed at 350 rpm). At each time point (0, 5, 10, 15, 20, 30, 45, 60, 90, 120, 150 and 180 min) a Tecan Evo robot aspirated 50 μL of the incubation mixture and 100 μL of acetonitrile containing internal standard to quench the reaction. […] Samples were centrifuged (3000 rpm for 10 minutes) and the plate sealed prior to injection onto an LC-MS/MS system.
(§2) The appropriate parent/daughter ions were monitored for the test article and IS with the LC-MS/MS system. The intrinsic clearance (Clint; expressed μL/min/million cells) was determined from the first order elimination constant (k, min^−1) of test article decay and the volume of the incubation. […] The intrinsic organ CL was then converted to the hepatic clearance (CLhep) using the well-stirred model as shown below, where Qh is human hepatic blood flow.
(§3) Hepatic clearance is expressed as mL/min/kg. The hepatic clearance relates to the flow of blood through the liver that is completely cleared of the compound.

[3] = male, Beagle, in vivo, iv
[4] = male, cynomolgus monkey, in vivo, iv
GST-hRIPK1 (8-327) = GST-hRIPK1 (8-327) (Homo sapiens (Human), UniProt Q13546); test: Fluorescent Polarization Binding (FP Binding) assay
GST-hRIPK1 (8-327), sequence (Q13546 8-327): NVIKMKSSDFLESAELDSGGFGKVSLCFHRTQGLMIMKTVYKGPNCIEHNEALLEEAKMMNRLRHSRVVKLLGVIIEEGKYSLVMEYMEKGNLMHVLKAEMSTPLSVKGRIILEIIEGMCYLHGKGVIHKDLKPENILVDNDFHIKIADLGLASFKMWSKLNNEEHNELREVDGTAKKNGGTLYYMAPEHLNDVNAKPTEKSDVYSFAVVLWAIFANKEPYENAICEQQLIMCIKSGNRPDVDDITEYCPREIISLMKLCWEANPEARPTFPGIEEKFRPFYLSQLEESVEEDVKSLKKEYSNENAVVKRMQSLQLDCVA

[5] = system: human cryopreserved hepatocytes
Method: as §1, §2, §3

MDCKII-MDR1 cell line = test: MDCKII-MDR1 permeability, efflux ratio; type: in vitro ADME; conditions: MDCKII-MDR1, 3 μM, 90 min
Method: The blood brain barrier (BBB) separates circulating blood from the extracellular fluid of the central nervous system (CNS). The passive membrane permeability (Papp) and the P-gp (P-glycoprotein) substrate efflux potential were determined using the MDCKII-MDR1 cell line as an in vitro model of the effective permeability of a compound through the BBB. A bidirectional assay (Apical to Basolateral (A→B) and Basolateral to Apical (B→A)), in the absence and in the presence of GF120918 (a P-gp inhibitor) was conducted using pre-plated MDCKII-MDR1 cells (Corning HTS Transwell-96) obtained from SOLVO Biotechnology. The assay was run at 3 μM for 90 min (minutes) in triplicate using a HBSS+12.5 mM HEPES pH 7.4 transport buffer. Following incubation of samples from donor and receiver, wells were removed and measured by LC-MS/MS. Samples were extracted by protein precipitation with acetonitrile containing an appropriate internal standard (IS) having a known mass and molecular weight. The precipitate was centrifuged for 10 min at 3000 rpm (revolutions per minute). The supernatants were then collected, diluted if necessary, and injected on to the LC-MS/MS system. […] Papp (apparent permeability expressed in nm/sec [nanometer/second]) values were calculated according to the following equation: […]
Where dQ/dt is the permeability rate, C0 is the initial concentration in the donor solution (expressed as IS ratio), A and B are the surface areas of the filter (the surface area of the cell monolayer).
Monolayer efflux ratios (ER) were derived using the following equation: […]

[6] = system: FADD-deficient Jurkat cells; test: Cellular necroptosis assay (human TNFα-induced necrosis, CellTiter-Glo); type: cell-based; conditions: Homo sapiens, Jurkat, 48 h, TNFα 10 ng/mL, read-out: Cell IC50
TNF/zVAD = conditions: 30 mg/kg, from Table 2 of WO 2014/125444; cited from earlier work

| SMILES | Rat unbound CL [1] [mL/min/kg] | clearance as % of liver blood flow [2] | Human hepatocyte CLhep Avg [2] [mL/min/kg] | Dog unbound CL [3] [mL/min/kg] | Cyno unbound CL [4] [mL/min/kg] | IC50 (GST-hRIPK1 (8-327)) [nM] | Human hepatocyte CLhep Avg [5] [mL/min/kg] | ER MDR1 (MDCKII-MDR1 cell line) | IC50 [6] [nM] | inhibition of temperature loss (TNF/zVAD) [%] |
| --- | --- | --- | --- | --- | --- | --- | --- | --- | --- | --- |
| CN1C(=O)[C@@H](NC(=O)c2cc(Cc3ccccc3)on2)CC2(CC2)c2ccccc21 [Example 9, (S)-5-benzyl-N-(1-methyl-2-oxo-1,2,3,4-tetrahydrospiro[benzo[b]azepine-5,1′-cyclopropan]-3-yl)isoxazole-3-carboxamide] |  |  |  |  |  | 0.1 to 1000 | 19 |  |  |  |
| CN1C(=O)[C@@H](NC(=O)c2nnc(Cc3ccccc3)o2)COc2ccccc21 [B, reference compound] |  |  | 14 |  |  |  |  | 1.0 | 0.3 |  |
| CN1C(=O)[C@@H](NC(=O)c2cc(C3(c4ccccc4)CC3)on2)COc2ccccc21 [Example 8, (S)—N-(5-methyl-4-oxo-2,3,4,5-tetrahydrobenzo[b][1,4]oxazepin-3-yl)-5-(1-phenylcyclopropyl)isoxazole-3-carboxamide] | 3700 |  |  |  |  | 0.1 to 1000 | 19 |  |  |  |

The next lines start with results.

| Rat unbound CL [1] [mL/min/kg] | clearance as % of liver blood flow [2] | Human hepatocyte CLhep Avg [2] [mL/min/kg] | Dog unbound CL [3] [mL/min/kg] | Cyno unbound CL [4] [mL/min/kg] | SMILES | IC50 (GST-hRIPK1 (8-327)) [nM] | Human hepatocyte CLhep Avg [5] [mL/min/kg] | ER MDR1 (MDCKII-MDR1 cell line) | IC50 [6] [nM] | inhibition of temperature loss (TNF/zVAD) [%] |
| --- | --- | --- | --- | --- | --- | --- | --- | --- | --- | --- |
| 22 | less than 4% | 0.8 | 64 | 42 | CN1C(=O)[C@@H](NC(=O)c2nnc(Cc3ccccc3)[nH]2)COc2cccnc21 [Example 42, (S)-5-benzyl-N-(5-methyl-4-oxo-2,3,4,5-tetrahydropyrido[3,2-b][1,4]oxazepin-3-yl)-4H-1,2,4-triazole-3-carboxamide] |  |  |  |  |  |
| 32 |  |  |  |  | CN1C(=O)[C@@H](NC(=O)c2ncn(Cc3cccc(C#N)c3)n2)COc2cccnc21 [Example 171, (S)-1-(3-cyanobenzyl)-N-(5-methyl-4-oxo-2,3,4,5-tetrahydropyrido[3,2-b][1,4]oxazepin-3-yl)-1H-1,2,4-triazole-3-carboxamide] |  | 5.1 |  |  |  |
| 77 | approximately 32% | 6.8 | 240 |  | CN1C(=O)[C@@H](NC(=O)c2nnc(Cc3ccccc3)[nH]2)COc2ccccc21 [A, reference compound] |  |  |  | 0.5 | 93 |
